Experimental findings from paper PMC5947527 (Chemical Science, 2015) are described below.

Series [1] relates to methicillin-sensitive Staphylococcus aureus. As to the kind of experiment: Confocal labelling of MSSA with quantified fluorescence. It counts as cell-based. Conditions: MSSA, 10 μM, fluorescence normalized to UBI-3, mean ± SEM, n ≥ 3. How it is done:
Fig. 6 Confocal Images of compounds UBI-3 to 9 with quantified fluorescence. Panels show methicillin-sensitive Staphylococcus aureus incubated with UBI-3 to 9 (all 10 μM) with quantification of bacterial fluorescence normalized to UBI-3 (bars represent mean (±SEM), n ≥ 3, ns = not significant, *** = p < 0.001, * = p < 0.05, scale bar = 10 μm).
Fig. 8 Confocal images and quantification of cyclic variants when compared to UBI-3. Panels show methicillin-sensitive Staphylococcus aureus incubated with cyclic UBI compounds (all 10 μM) with quantification of bacterial fluorescence normalized to UBI-3 (bars represent mean (±SEM), n ≥ 3, ns = not significant, ** = p < 0.01, scale bar = 10 μm).
Bacterial Culture and Labelling: Bacteria used were K. pneumoniae (ATCC BAA1706) ATCC, E. coli (ATCC 25922) ATCC, A. baumannii (J3433) Clinical Isolate, P. aeruginosa (J3284) Clinical Isolate, Methicillin Resistant S. aureus (MRSA) (ATCC25923) ATCC and Methicillin Sensitive S. aureus (MSSA) (ATCC 252) ATCC. All bacteria were grown on Lysogeny broth (LB) agar and from a single bacterial colony placed into 10ml of LB and incubated at 37°C for 16 hours in an orbital shaker.
Cultures were centrifuged at 4000rpm for 5 minutes and the pellet resuspended in 1ml phosphate buffered saline (PBS, Life Technologies). Following three further washes in PBS the cultures were reconstituted to 1 OD595 nm. Bacteria were counterstained with 5µM Syto 82 orange fluorescent nucleic acid stain (Invitrogen, CA, USA) in a shaking heat block at 37 °C for 20 minutes. For FCFM bacteria were stained with 1µM Calcein AM (Sigma, MO, USA) for 30 minutes at 37 °C. Counterstained bacteria were washed in PBS to remove excess dye. […]
Confocal Analysis and Fluorescence Quantification: 8-Well Lab-Tek II Confocal Chambers (VWR, PA, USA) were coated in fibronectin (for neutrophil experiments) or poly-d-lysine (for bacteria) at 37 °C for 20 minutes, then washed in PBS prior to bacterial innoculation. For co-culture assays, neutrophils were seeded on fibronectin coated wells at 1 x 10^5 neutrophils per well for 20 minutes and non-adherent neutrophils aspirated. Bacteria were added to each chamber to a final concentration of 0.5 OD595 nm with the desired final concentration of Smartprobe. A laser-scanning confocal imaging system (LSM510; Carl Zeiss, Jena, Germany), incorporating an upright Axioskop FS2 microscope (63× objective) was used for image acquisition and processing. Exposure to 488 nm light was limited to 5% of the maximum laser power in order to minimize toxicity. ‘Green’ fluorescence (for FAM and NBD) was excited with a dedicated 488 nm line and emitted light detected with meta detector (500-530 nM).
Syto nuclear and dyes were excited with a dedicated 543 nm line, and emitted light detected with meta detector (570-610 nM). Fields of view were chosen based on the counterstain and at least three fields of view were recorded for each condition. For affinity assays, following initial imaging, the fluid was aspirated and two gentle washes with PBS were performed. The chamber was re-imaged on confocal.
Analysis was with ImageJ (version 1.46r, National Institutes of Health, USA); the Syto channel was automatically thresholded (MaxEntropy, with a set threshold 0-47) and an ROI generated from this. The […]
mean fluorescence intensity on the probe channel within this ROI was quantified. Data presented represents the mean of three experiments, from each of which three separate fields of view were assessed. All experiments were performed at least three times unless otherwise stated and results expressed as mean ± SEM. Data was analysed by unpaired t-test and significance was determined as p<0.05 (GraphPad Prism version 5.01 for Windows, GraphPad Software, San Diego California USA).
Ex vivo Human Lung and FCFM Procedure: Human lung samples were obtained from patients undergoing surgical resection for lung carcinoma. All images were obtained on sections of normal lung […]

Series [2] in a line: Stability in ARDS bronchoalveolar lavage fluid (MALDI-TOF MS). It is filed as in vitro ADME, human. Particulars: human ARDS BALF pooled from three patients vs PBS, 5 and 30 min, MALDI-TOF MS. An excerpt: To determine the ability of UBI-3 to image bacteria in the continued presence of a complex inflammatory environment, bacteria were labelled with UBI-3 in the presence of broncho-alveolar lavage fluid (BALF) retrieved from ventilated ICU patients with Acute Respiratory Distress Syndrome (ARDS). ARDS BALF was utilised as ARDS is a severe life threatening pulmonary syndrome, characterized by a massive proteolytic and oxidative inflammatory environment within the distal alveolar region.[14] […] To design out susceptible amino acid cleavage points, a number of modifications were made (Table 1) and the functional consequences assessed. The chemical approaches pursued to improve resistance to degradation included replacing amino acids at the cleavage positions with non-natural amino acids such as N-methyl or D-amino acids,[15] and cyclisation of the peptide,[16] which could have the added benefit of enhancing affinity towards bacterial membrane.[17]
The Arg–Arg bonds were identified as the prominent position of degradation (Fig. 5) and Compounds UBI-4–9 (Table 1) were synthesised with a variety of substitutions around the degradation sites. The susceptible peptide bonds at P1–P2 and P7–P8 were blocked using N-MeArg (UBI-4), and to further mask these positions, a long polyethylene glycol (PEG) chain and/or a D-amino acid were positioned at the carboxylic and/or amino termini (UBI-5–7).
We hypothesized that cyclisation of the sequence would allow for greater stability and also improve bacterial affinity and therefore cyclic variants of UBI-3 were synthesized (UBI-10 and UBI-11), which were both found to be stable in BALF for 5 minutes (Fig. 7 and S3 ESI ^†). […] However, these studies also highlighted the degradation of UBI-10 at 10 minutes, guiding the temporal constraints of Smartprobe delivery and optical imaging.
Fig. 7 UBI-10 remains stable in ARDS BALF at 5 minutes. (A) Structure of UBI-10 with breakdown products in ARDS BALF. […] TEXT PRINTED IN THE PICTURE: UBI-10: Molecular Weight: 2118.41 | Fragment A: Molecular Weight: 1923.18 | Fragment B: Molecular Weight: 1980.23 DOUBTS OF THE COPYIST ABOUT THIS PICTURE: UBI-10, Molecular Weight: very small print, 2118.41 is the best reading; the digits 8 and 4 are uncertain / Fragment A, Molecular Weight: very small print, 1923.18 is the best reading; the digits 9, 3 and 8 are uncertain / Fragment B, Molecular Weight: very small print, 1980.23 is the best reading; the digits 9, 8 and 3 are uncertain […]
Supplementary Information
A Labelled-Ubiquicidin Antimicrobial Peptide for Immediate In Situ Optical Detection of Live Bacteria in Human Alveolar Lung Tissue
Ahsan R Akram, Nicolaos Avlonitis, Annamaria Lilienkampf, Ana M Perez-Lopez, Neil McDonald, Sunay V Chankeshwara, Emma Scholefield, Christopher Haslett, Mark Bradley & Kevin Dhaliwal.
Figure S1: MALDI-TOF MS spectra for a stability study of UBI-3 in PBS and in ARDS BALF […]
Figure S2. MALDI-TOF MS spectra of modified analogues UBI-4 to UBI-9 in Phosphate Buffered Saline and ARDS BALF over a period of 5 and 30min.
Figure S3: MALDI-TOF MS spectra of UBI-11 in Phosphate Buffered Saline vs ARDS BALF […]
Figure S4. Quantified fluorescence of confocal microscopy images of the compounds UBI-3, UBI-5 and UBI-10 on three bacteria and fluorescence retention following a PBS wash.
Figure S5: Fibered confocal fluorescence microscopy imaging of human lung and Calcein AM stained Methicillin sensitive S. aureus.
Experimental Details including Tables M1-4, Figure M1 and HPLC Chromatograms.
(also on this page, place not known: Electronic Supplementary Material (ESI) for Chemical Science. This journal is © The Royal Society of Chemistry 2015)
(1 picture or pasted object on this page, not shown here) […]
BALF Retrieval: Bronchoalveolar lavage was performed in the Intensive Care Unit (ICU), as previously described. S5 Pooled samples from three patients were used for stability assays. […]
Exposure to 488 nm light was limited to 5% […]

A short description of series [3]: broncho-alveolar lavage fluid (BALF) retrieved from ventilated ICU patients with Acute Respiratory Distress Syndrome (ARDS); pooled samples from three patients. Particulars: human, up to 30min.

“Also recorded” adds a separate entry of the source. Non-standard residues stand in square brackets, D forms with d. Residues, ends and D or L forms follow the SMILES beside them. *: point of attachment. Decanoyl(3,6,9-trioxa) = COCCOCCOCC(=O)*; NBD = O=[N+]([O-])c1ccc(*)c2nonc12; dNle = CCCC[C@@H](N)C(=O)O; Nle = CCCC[C@H](N)C(=O)O; AEEA = NCCOCCOCC(=O)O; Ahx = NCCCCCC(=O)O

As to `CCCC[C@H](NC(=O)[C@H](CCCNC(=N)N)NC(=O)[C@H](CCCNC(=N)N)NC(=O)[C@H](CCCCN)NC(=O)[C@H](C)NC(=O)[C@H](CCCNC(=N)N)NC(=O)CNC(=O)[C@@H](NC(=O)[C@H](CCCCNc1ccc([N+](=O)[O-])c2nonc12)NC(=O)COCCOCCOC)[C@@H](C)O)C(=O)N[C@@H](CCC(N)=O)C(=O)N[C@@H](Cc1ccc(O)cc1)C(=O)N[C@@H](CC(N)=O)C(=O)N[C@@H](CCCNC(=N)N)C(=O)N[C@@H](CCCNC(=N)N)C(=O)NCCOCCOCC(=O)NCCOCCOCC(N)=O` [UBI-6] ({Decanoyl(3,6,9-trioxa)}-K(NBD)TGRAKRR[Nle]QYNRR[AEEA][AEEA]-NH2), in series [1], the “bacterial labelling (fluorescence compared with UBI-3)” value is recorded as “loss of labelling on bacteria; also recorded: loss of labelling efficacy”. `CCCC[C@H](NC(=O)[C@H](CCCNC(=N)N)NC(=O)[C@H](CCCNC(=N)N)NC(=O)[C@H](CCCCN)NC(=O)[C@H](C)NC(=O)[C@H](CCCNC(=N)N)NC(=O)CNC(=O)[C@@H](NC(=O)CCCCCNc1ccc([N+](=O)[O-])c2nonc12)[C@@H](C)O)C(=O)N[C@@H](CCC(N)=O)C(=O)N[C@@H](Cc1ccc(O)cc1)C(=O)N[C@@H](CC(N)=O)C(=O)N[C@@H](CCCNC(=N)N)C(=O)N[C@@H](CCCNC(=N)N)C(=O)NCCOCCOCC(=O)NCCOCCOCC(N)=O` [UBI-7] ({NBD-Ahx}-TGRAKRR[Nle]QYNRR[AEEA][AEEA]-NH2): the “stability in ARDS BALF” value in series [2] is on record as “did not improve stability in ARDS BALF; also recorded: Unstable in ARDS BALF at 30 minutes”. Besides, the “bacterial labelling (fluorescence compared with UBI-3)” value in series [1] is recorded as “loss of bacterial labelling; also recorded: loss of labelling efficacy”. Consider `CCCC[C@@H](NC(=O)[C@@H](CCCNC(=N)N)NC(=O)[C@@H](CCCNC(=N)N)NC(=O)[C@@H](CCCCN)NC(=O)[C@@H](C)NC(=O)[C@@H](CCCNC(=N)N)NC(=O)CNC(=O)[C@H](NC(=O)COCCOCCNc1ccc([N+](=O)[O-])c2nonc12)[C@H](C)O)C(=O)N[C@H](CCC(N)=O)C(=O)N[C@H](Cc1ccc(O)cc1)C(=O)N[C@H](CC(N)=O)C(=O)N[C@H](CCCNC(=N)N)C(=O)N[C@H](CCCNC(=N)N)C(=O)O` [UBI-8] ({NBD-AEEA}-[dT]G[dR][dA][dK][dR][dR][dNle][dQ][dY][dN][dR][dR]-OH), for which, in series [1], the “bacterial labelling (fluorescence compared with UBI-3)” value is on record as “loss of labelling on bacteria; also recorded: loss of labelling efficacy”.

In the case of `CCCC[C@@H](NC(=O)[C@@H](CCC(N)=O)NC(=O)[C@@H](Cc1ccc(O)cc1)NC(=O)[C@@H](CC(N)=O)NC(=O)[C@@H](CCCNC(=N)N)NC(=O)[C@@H](CCCNC(=N)N)NC(=O)COCCOCCOC)C(=O)N[C@H](CCCNC(=N)N)C(=O)N[C@H](CCCNC(=N)N)C(=O)N[C@H](CCCCN)C(=O)N[C@H](C)C(=O)N[C@H](CCCNC(=N)N)C(=O)NCC(=O)N[C@@H](C(=O)N[C@@H](CCCCNc1ccc([N+](=O)[O-])c2nonc12)C(=O)O)[C@H](C)O` [UBI-9] ({Decanoyl(3,6,9-trioxa)}-[dR][dR][dN][dY][dQ][dNle][dR][dR][dK][dA][dR]G[dT]K(NBD)-OH), the “bacterial labelling (fluorescence compared with UBI-3)” value in series [1] is “loss of labelling on bacteria; also recorded: loss of labelling efficacy”. Consider “MeO-PEG- D- Arg- D- Arg- D- Asn- D- Tyr- D- Gln- D- Nle- D- Arg- D- Arg- D- Lys- D- Ala- D- Arg-Gly- D- Thr-Lys(NBD)-OH”, for which, in series [3], the not cleaved result is “Stable in ARDS BALF”. In the case of “NBD-Ahx-Thr-Gly-Arg-Ala-Lys-Arg-Arg-Nle-Gln-Tyr-Asn-Arg-Arg-NH2”, the cleaved bond result in series [3] is reported as “ArgP8-ArgP7, major, <5 min; also recorded: ArgP2-ArgP1, major, <5 min”.

Take “NBD-Ahx-Thr-Gly-Arg-Ala-Lys-Arg-MeArg-Nle-Gln-Tyr-Asn-Arg-Arg-D-Phe-D-Val-NH2”: the not cleaved result in series [3] is “Stable in ARDS BALF”. Turning to “NBD-Ahx-Thr-Gly-Arg-Ala-Lys-MeArg-MeArg-Nle-Gln-Tyr-Asn-MeArg-MeArg-NH2”, the not cleaved entry in series [3] was “Stable in ARDS BALF”. In the case of “NBD-Ahx-cyclo[Lys-Thr-Gly-Arg-Ala-Lys-Arg-Arg-Nle-Gln-Tyr-Asn-Arg-Arg-Gly]”, the cleaved bond result in series [3] is recorded as “Thr-Gly, first_seen, 10min; also recorded: Arg-Arg, major, 20min”. “NBD-Ahx-cyclo[Lys-Thr-Gly-Arg-Ala-Lys-Arg-Arg-Nle-Gln-Tyr-Asn-Arg-MeArg-Gly]”: the not cleaved entry in series [3] was “stability in BALF for over 30 minutes”. The same measure, in the same setting: with “NBD-PEG-D-Thr-Gly-D-Arg-D-Ala-D-Lys-D-Arg-D-Arg-D-Nle-D-Gln-D-Tyr-D-Asn-D-Arg-D-Arg-OH” the entry was “Stable in ARDS BALF”.
